Measured values reported in patent US9951149B2, “Reversible heparin molecules and methods of making and using the same” (The University of North Carolina at Chapel Hill, priority 2013, dated 2018).

System: mice
Assay: Mouse model of tail bleeding
Assay type: in vivo
Conditions: for effect of protamine on primary bleeding time after tail transection: protamine 15 mgkg^−1 i.v. (FIG. 4D)
Protocol: Under isoflurane anesthesia, mice (n=8 per group) were administered with PBS or Compound 5 (0.6 mgkg^−1) subcutaneously, 30 min later PBS or protamine (15 mgkg^−1) was administered via retro-orbital intravenous injection. After 5 minutes the distal part of the tail was transected at the constant diameter (1.5 mm), approximately 3-4 mm from the end. That results in both arterial and venous bleeding. […] The primary bleeding time was defined as the time to the first cessation of bleeding. Subsequently, time for each reinitiated bleeding was also recorded, and used to calculate total bleeding time. One mouse in Compound 5/protamine group received an inaccurate protamine injection and was excluded from the study. The blood collected in PBS was used to calculate total blood volume loss. Formic acid was added to samples (70:30 ratio) and absorbance was measured at 405 nm. A standard curve was generated by mixing […] of PBS with known amounts of blood. Statistical analysis between each group was performed by one-way ANOVA (GraphPad Prism Software, La Jolla, Calif., United States of America) followed by Bonferroni's multiple comparison test.

CC(=O)NC1C(OC2C(C(=O)O)OC(OC3C(COS(=O)(=O)O)OC(OC4C(C(=O)O)OC(OC5C(COS(=O)(=O)O)OC(OC6C(C(=O)O)OC(OC7C(COS(=O)(=O)O)OC(OC8C(C(=O)O)OC(OC9C(COS(=O)(=O)O)OC(OC%10C(C(=O)O)OC(OC%11C(COS(=O)(=O)O)OC(OC%12C(C(=O)O)OC(Oc%13ccc([N+](=O)[O-])cc%13)C(O)C%12O)C(NS(=O)(=O)O)C%11O)C(OS(=O)(=O)O)C%10O)C(NS(=O)(=O)O)C9OS(=O)(=O)O)C(OS(=O)(=O)O)C8O)C(NS(=O)(=O)O)C7O)C(OS(=O)(=O)O)C6O)C(NS(=O)(=O)O)C5O)C(OS(=O)(=O)O)C4O)C(NS(=O)(=O)O)C3OS(=O)(=O)O)C(O)C2O)OC(COS(=O)(=O)O)C(O)C1O (stereo not shown) [Compound 5]
effect of protamine on blood loss after tail transection (mice, Compound 5 0.6 mgkg^−1 s.c., protamine 15 mgkg^−1 i.v.): reduced the blood loss
effect of protamine on primary bleeding time after tail transection (mice, Compound 5 0.6 mgkg^−1 s.c.): protamine shortened the primary bleeding time
effect of protamine on primary bleeding time after tail transection (mice, Compound 5 0.6 mgkg^−1 s.c., listed as compound 5): significantly shortened the primary bleeding time
reversal of anti-Xa activity in an in vivo experiment (mouse tail bleeding model, protamine): can be reversed
